According to the supplement of paper PMC10307832:

Key:
Assay in all cases: relative viability (nuclei count vs DMSO), 5 days (fraction); higher = more cells survive
Tozasertib + Vorinostat = compound: Cc1cc(Nc2cc(N3CCN(C)CC3)nc(Sc3ccc(NC(=O)C4CC4)cc3)n2)n[nH]1 [Tozasertib] + O=C(CCCCCCC(=O)Nc1ccccc1)NO [Vorinostat] (partner 1 µM)
Outline: (§1)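 Dosing by pin tool came one day after lung cancer cell lines were seeded in 1536-well plates, using either one drug or a fixed anchor-drug dose plus five library-drug doses (not always all listed) in √10 steps. After 5 days, nuclei were counted on 4× images. Relative viability is treated-well nuclei count divided by vehicle-well nuclei count, and values are medians of duplicate plates.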

Tozasertib + Crizotinib = compound: Cc1cc(Nc2cc(N3CCN(C)CC3)nc(Sc3ccc(NC(=O)C4CC4)cc3)n2)n[nH]1 [Tozasertib] + C[C@@H](Oc1cc(-c2cnn(C3CCNCC3)c2)cnc1N)c1c(Cl)ccc(F)c1Cl [Crizotinib] (partner 1 µM)
Outline: as §1

Tozasertib + Palbociclib = compound: Cc1cc(Nc2cc(N3CCN(C)CC3)nc(Sc3ccc(NC(=O)C4CC4)cc3)n2)n[nH]1 [Tozasertib] + CC(=O)c1c(C)c2cnc(Nc3ccc(N4CCNCC4)cn3)nc2n(C2CCCC2)c1=O [Palbociclib] (partner 0.5 µM)
Outline: as §1

Tozasertib + Decitabine = compound: Cc1cc(Nc2cc(N3CCN(C)CC3)nc(Sc3ccc(NC(=O)C4CC4)cc3)n2)n[nH]1 [Tozasertib] + Nc1ncn([C@H]2C[C@H](O)[C@@H](CO)O2)c(=O)n1 [Decitabine] (partner 2 µM)
Outline: as §1

Tozasertib + Pemetrexed = compound: Cc1cc(Nc2cc(N3CCN(C)CC3)nc(Sc3ccc(NC(=O)C4CC4)cc3)n2)n[nH]1 [Tozasertib] + Nc1nc2[nH]cc(CCc3ccc(C(=O)N[C@@H](CCC(=O)O)C(=O)O)cc3)c2c(=O)[nH]1 [Pemetrexed] (partner 0.2 µM)
Outline: as §1

Row | Cell Line | relative viability (Tozasertib + Vorinostat; first compound 0.004 µM) | relative viability (Tozasertib + Vorinostat; first compound 0.01265 µM) | relative viability (Tozasertib + Vorinostat; first compound 0.04 µM) | relative viability (Tozasertib + Vorinostat; first compound 0.1265 µM) | relative viability (Tozasertib + Crizotinib; first compound 0.01265 µM) | relative viability (Tozasertib + Crizotinib; first compound 0.04 µM) | relative viability (Tozasertib + Crizotinib; first compound 0.1265 µM) | relative viability (Tozasertib + Palbociclib; first compound 0.004 µM) | relative viability (Tozasertib + Palbociclib; first compound 0.01265 µM) | relative viability (Tozasertib + Palbociclib; first compound 0.04 µM) | relative viability (Tozasertib + Palbociclib; first compound 0.1265 µM) | relative viability (Tozasertib + Decitabine; first compound 0.004 µM) | relative viability (Tozasertib + Decitabine; first compound 0.01265 µM) | relative viability (Tozasertib + Decitabine; first compound 0.04 µM) | relative viability (Tozasertib + Decitabine; first compound 0.1265 µM) | relative viability (Tozasertib + Pemetrexed; first compound 0.004 µM) | relative viability (Tozasertib + Pemetrexed; first compound 0.01265 µM) | relative viability (Tozasertib + Pemetrexed; first compound 0.04 µM) | relative viability (Tozasertib + Pemetrexed; first compound 0.1265 µM) | relative viability (Tozasertib + Crizotinib; first compound 0.004 µM)
1 | LXF-289 | 0.731 | 0.702 | 0.533 | 0.252 | 0.758 | 0.717 | 0.161 | 0.63 | 0.6 | 0.561 | 0.583 | 0.378 | 0.405 | 0.337 | 0.262 | 0.972 | 0.824 | 0.842 | 0.859 | 
2 | COR-L 105 | 0.998 |  | 0.936 | 0.512 | 0.765 | 0.771 | 0.458 | 0.353 | 0.393 | 0.419 | 0.356 | 0.717 | 0.61 | 0.69 | 0.558 | 1.05 | 1.14 | 1.23 | 1.15 | 
3 | NCI-H2126 | 0.797 | 0.808 | 0.915 | 0.781 | 1.03 | 1.09 | 0.996 | 0.354 | 0.405 | 0.372 | 0.339 | 0.551 | 0.58 | 0.612 | 0.606 | 0.688 | 0.736 |  | 0.729 | 1.17
4 | NCI-H650 | 0.448 | 0.4 | 0.568 | 0.389 | 0.73 | 0.574 | 0.397 | 0.362 | 0.288 | 0.317 | 0.313 | 0.38 | 0.288 | 0.334 | 0.284 | 1.01 | 0.897 | 0.878 | 0.82 | 0.8
5 | NCI-H1975 | 0.706 | 0.706 | 0.72 | 0.583 | 1.03 | 0.853 | 0.604 | 0.59 | 0.598 | 0.623 | 0.622 | 0.371 | 0.462 | 0.382 | 0.36 | 0.317 | 0.289 | 0.307 | 0.272 | 1.05
6 | HCC-366 | 0.371 | 0.3 | 0.198 | 0.0431 | 0.472 | 0.257 | 0.039 | 0.4 | 0.391 | 0.502 | 0.227 | 0.32 | 0.314 | 0.314 | 0.169 | 0.173 | 0.145 | 0.184 | 0.136 | 
7 | PC-3 [JPC-3] | 0.616 | 0.51 | 0.71 | 0.566 | 0.973 | 0.94 | 0.945 | 0.526 | 0.535 | 0.511 | 0.545 | 0.808 | 0.889 | 0.828 | 0.793 | 1.08 | 1.01 | 1.21 | 0.919 | 0.884
8 | NCI-H1944 | 0.557 | 0.519 | 0.427 | 0.204 | 0.962 | 1.04 | 0.616 | 0.311 | 0.308 | 0.332 | 0.273 | 0.404 | 0.396 | 0.403 | 0.349 | 0.577 | 0.579 | 0.588 | 0.537 | 0.943
